The test system of data set [1] is target genes of PPARδ in murine myocytes (C2C12). Put plainly: Expression of target genes of PPARδ (PDK4, CPT1b, UCP2, UCP3) in murine myocytes, quantitative RT-PCR. The conditions noted are these: murine myocytes in vitro. Type of data set: cell-based. The text has this:
It is established that regulation of the expression of these genes is directly controlled by PPARδ in this cell type. The more the expression of the genes is increased, the greater the stimulating action of the compound according to the invention on metabolism in the muscle cells.
Cells from the murine cell line C2C12 (obtained from ECACC) are cultivated in DMEM medium (Gibco; 41965-039) with addition of 1% L-glutamine (Gibco; 25030), 1% of penicillin/streptomycin (VWR; BWSTL0022/100) and 10% decomplemented fetal calf serum (FCS. Gibco; 10270-106).
The cells are seeded on 24-well plates at a density of 50·10^3 cells/well. At confluence, the medium is replaced with a differentiating medium (basal medium with addition of 2% of horse serum (Gibco; 26050-088)), then incubated at 37° C. and 5% CO2 for 4 days in order to differentiate them to myocytes.
After 5 days of differentiation, the cells are put in a deprivation medium (basal medium without serum) for 6 hours. The cells are then treated with the compounds according to the invention in the deprivation medium. Compounds 2, 4, 7, 11, 39, 40, 46, 49 and 72 were in dose effect, corresponding to 1×, 10× and 100× their EC50 PPARδ. The compounds according to the invention were dissolved in dimethylsulfoxide (DMSO, Sigma; D5879). The cells were treated for 24 h at 37° C., 5% CO2. The effect of the compounds according to the invention was compared with the effect of DMSO alone.
After treatment, the total RNA is extracted from the cells using the NucleoSpine® 96 RNA kit (Macherey Nagel, Hoerdt, France) following the manufacturer's instructions.
1 μg of total RNA (quantified based on the UV spectrophotometer reading) was then reverse-transcribed to complementary DNA by reaction for 1 hour at 37° C. in a total volume of 30 μl containing buffer 1× (Invitrogen), 1.5 mM of DTT, 0.18 mM of dNTPs (Promega), 200 ng of pdN6 (Amersham), 30 U of RNase inhibitor (Promega) and 1 μl of MMLV-RT (Invitrogen).
The quantitative PCR experiments were carried out using the MyiQ Single-Color Real-Time PCR Detection System (Biorad, Marnes-la-Coquette, France) and were performed using the iQ SYBR Green Supermix kit following the supplier's recommendations, in 96-well plates, on 5 μl of diluted reverse-transcription reaction mixtures with a hybridization temperature of 60° C. Primer pairs specific to the PDK4, CPT1b, UCP2 and UCP3 genes under investigation were used:
The amount of fluorescence emitted is directly proportional to the amount of complementary DNA present at the start of the reaction and amplified during PCR. For each target investigated, a range is produced by successive dilutions of a pool constituted of a few microliters of various reverse-transcription reaction mixtures. The relative expression levels of each target are thus determined using the efficacy curves obtained with the points in the range.
The levels of expression of the genes of interest were then normalized relative to the level of expression of the reference gene 36B4 (whose specific primers are: sense primer: 5′-[…]-3′ (SEQ ID No. 19) and antisense primer: 5′-[…]-3′ (SEQ ID No. 20)). The induction factor, i.e. the ratio of the relative signal (induced by the compound according to the invention) to the mean of the relative values of the control group, was then calculated. The higher this factor, the greater the activating character of the compounds according to the invention with respect to gene expression. The final result is represented as the mean of the induction values in each experimental group.

The target of data set [2] is T1, hPPARalpha (Homo sapiens, UniProt Q07869).
T1 construct: expressed in transfected cells; host or cells: COS-7 (monkey kidney fibroblasts)
T1 sequence (Q07869 239-466 limits assumed): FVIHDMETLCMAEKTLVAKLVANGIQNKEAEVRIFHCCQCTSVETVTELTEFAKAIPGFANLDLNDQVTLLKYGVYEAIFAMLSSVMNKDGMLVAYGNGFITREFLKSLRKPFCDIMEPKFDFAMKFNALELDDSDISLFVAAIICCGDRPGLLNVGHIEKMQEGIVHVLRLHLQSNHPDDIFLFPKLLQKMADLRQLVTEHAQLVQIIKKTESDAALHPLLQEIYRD
Put plainly: PPAR activation: Gal4-hPPARα chimera luciferase transactivation in COS-7 cells, Method 1. It counts as cell-based. The conditions noted are these: COS-7, 24 h; for Emax: maximum percentage response relative to the reference phenofibric acid, read-out: hPPARalpha % max. Here is the method: (§1) The activation of the PPARs was evaluated in vitro on a line of monkey kidney fibroblasts (COS-7) by measuring the transcriptional activity of chimeras constituted of the DNA binding domain of the Gal4 transcription factor of yeast and the ligand binding domain of the various PPARs. The compounds were tested at doses between 10^−5 and […] on the chimeras Gal4-PPARα, γ or δ, and the corresponding EC50 values were determined.
(§2) The COS-7 cells were obtained from the ATCC and were cultivated in DMEM medium supplemented with 10% (v/v) of fetal calf serum, 100 U/ml of penicillin (Gibco, Paisley, UK) and 2 mM of L-glutamine (Gibco, Paisley, UK). The cells were incubated at 37° C. in a humid atmosphere containing 5% CO2.
(§3) The plasmids Gal4(RE)_TkpGL3, pGal4-hPPARα, pGal4-hPPARγ, pGal4-hPPARδ and pGal4-φ are described in the literature (Raspe E et al., 1999). The constructs pGal4-hPPARα, pGal4-hPPARγ and pGal4-hPPARδ were obtained by cloning DNA fragments amplified by PCR corresponding to the DEF domains of the human nuclear receptors PPARα, PPARγ and PPARδ in the pGal4-φ vector.
(§4) The COS-7 cells in suspension were transfected with 150 ng of DNA per well, with a pGal4-PPAR/Gal4(RE)_TkpGL3 ratio of 1/10, in the presence of 10% fetal calf serum. The cells were seeded in 96-well plates (4×10^4 cells/well) and then incubated at 37° C. for 24 hours. Activation with the test compounds is carried out for 24 h at 37° C. in serum-free medium. At the end of the experiment, the cells were lysed and the luciferase activity was determined using the Steady-Lite™ HTS (Perkin Elmer) following the supplier's recommendations.

Data set [3] has as its target T2, hPPARdelta (Homo sapiens, UniProt Q03181).
T2 construct: expressed in transfected cells; host or cells: COS-7 (monkey kidney fibroblasts)
T2 sequence (Q03181 211-439 limits assumed): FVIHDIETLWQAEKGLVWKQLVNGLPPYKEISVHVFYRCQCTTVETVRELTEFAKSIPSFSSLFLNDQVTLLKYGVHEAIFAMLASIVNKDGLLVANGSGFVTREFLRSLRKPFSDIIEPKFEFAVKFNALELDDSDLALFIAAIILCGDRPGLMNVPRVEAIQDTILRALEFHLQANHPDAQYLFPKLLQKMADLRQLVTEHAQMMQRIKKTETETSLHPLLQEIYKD
Put plainly: PPAR activation: Gal4-hPPARδ chimera luciferase transactivation in COS-7 cells, Method 1. Type of data set: cell-based. Conditions: COS-7, 24 h; for Emax: maximum percentage response relative to the reference GW501516, read-out: hPPARdelta % max. Here is the method: as §1, §2, §3, §4

Data set [4] deals with T3, hPPARgamma (Homo sapiens, UniProt P37231).
T3 construct: expressed in transfected cells; host or cells: COS-7 (monkey kidney fibroblasts)
T3 sequence (P37231 238-503 limits assumed): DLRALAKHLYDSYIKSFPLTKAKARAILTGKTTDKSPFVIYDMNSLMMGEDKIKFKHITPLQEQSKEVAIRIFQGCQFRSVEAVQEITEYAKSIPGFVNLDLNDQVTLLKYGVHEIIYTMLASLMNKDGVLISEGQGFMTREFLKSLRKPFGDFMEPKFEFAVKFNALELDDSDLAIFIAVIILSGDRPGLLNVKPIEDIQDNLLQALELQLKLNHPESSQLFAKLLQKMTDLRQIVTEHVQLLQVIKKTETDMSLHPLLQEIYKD
Put plainly: PPAR activation: Gal4-hPPARγ chimera luciferase transactivation in COS-7 cells, Method 1. Type of data set: cell-based. The conditions noted are these: COS-7, 24 h; for Emax: maximum percentage response relative to the reference rosiglitazone, read-out: hPPARgamma % max. On the procedure: as §1, §2, §3, §4

Data set [5] addresses T1, hPPARalpha. In words: PPAR activation: Gal4-hPPARα chimera luciferase transactivation in COS-7 cells, Method 2. Conditions: COS-7, 24 h; for Emax: maximum percentage response relative to the reference phenofibric acid, read-out: hPPARalpha % max; for pEC50: 1% Ultroser. Type of data set: cell-based. On the procedure:
as §1
(§5) The principle, the cells and the plasmids used for example 5 were also employed in this example. Only the application of the transfection stage is slightly different. The details are presented below.
(§6) The adherent COS-7 cells are transfected with 40 μg of DNA per 225 cm^2 dish, with a pGal4-PPAR/Gal4(RE)_TkpGL3 ratio of 1/10, in the presence of 10% fetal calf serum. The cells are then detached and seeded in the absence of serum in 384-well plates (2×10^4 cells/well) and incubated for 4 hours at 37° C. The compounds are then diluted in a 96-well plate and transferred to the 384-well plate. Activation with the test compounds is carried out for an additional 24 h at 37° C. in the presence of 1% of Ultroser™ lipid-free synthetic serum (Biosepra). These last 2 stages are automated using a Genesis Freedom 200™ station (Tecan). At the end of the experiment, the cells are lysed and the luciferase activity is determined using the Steady-Lite™ HTS (Perkin Elmer) following the supplier's recommendations.

Data set [6] addresses T2, hPPARdelta. Put plainly: PPAR activation: Gal4-hPPARδ chimera luciferase transactivation in COS-7 cells, Method 2. Conditions: COS-7, 24 h; for pEC50: 1% Ultroser; for Emax: maximum percentage response relative to the reference GW501516, read-out: hPPARdelta % max. Type of data set: cell-based. Here is the method: as §1, §5, §6
The target of data set [7] is T3, hPPARgamma. Put plainly: PPAR activation: Gal4-hPPARγ chimera luciferase transactivation in COS-7 cells, Method 2. It counts as cell-based. Conditions: COS-7, 24 h, Method 2; for Emax: maximum percentage response relative to the reference rosiglitazone, read-out: hPPARgamma % max; for pEC50: 1% Ultroser, read-out: hPPARgamma EC50. On the procedure: The activation of the PPARs was evaluated in vitro on a line of monkey kidney fibroblasts (COS-7) by measuring the transcriptional activity of chimeras constituted of the DNA binding domain of the Gal4 transcription factor of yeast and the ligand binding domain of the various PPARs.
Only the application of the transfection stage is slightly different. The details are presented below.
as §6

The text below walks through data of US8088819B2, “Derivatives of substituted 3-phenyl-1-(phenylthienyl)propan-1-ones and of 3-phenyl-1-(phenylfuranyl) propan-1-ones, preparation and use” (priority 2006, dated 2012).

pEC50: −log10 of the molar value.

By pEC50 is commonly meant the EC50 on a negative log10 scale, so that one unit is a factor of ten. A word on the melting point: it is the temperature of the solid-liquid transition. `CC(C)(Oc1ccc(CCC(=O)c2ccc(-c3ccc(C(F)(F)F)cc3)s2)c(F)c1F)C(=O)O` [Compound 46, 2-(2,3-difluoro-4-(3-oxo-3-(5-(4-(trifluoromethyl)phenyl)thien-2-yl)propyl)phenoxy)-2-methylpropanoic acid] gave a melting point of 165 to 166 °C. In data set [1], the “expression of genes involved in carbohydrate and lipid metabolism and in thermoregulation” value (“expression of genes involved” for short) is recorded as “stimulating effects”. In addition, on hPPARalpha [2], the pEC50 was 7.96 and the Emax worked out at 58%. For the same molecule, on hPPARdelta [3], the pEC50 was 7.74 and the Emax came out at 105%. In addition, at hPPARgamma [4], the Emax amounted to 30%.

The molecule `Cc1cc(CCC(=O)c2ccc(-c3ccc(C(F)(F)F)cc3)s2)cc(C)c1OC(C)(C)C(=O)O` [Compound 48, 2-(2,6-dimethyl-4-(3-oxo-3-(5-(4-(trifluoromethyl)phenyl)thien-2-yl)propyl)phenoxy)-2-methylpropanoic acid] returned a melting point of 157 to 158 °C. For the same molecule, in data set [1], the “expression of genes involved” value was “stimulating effects”. On hPPARalpha [2], the Emax was 49%. Further, at hPPARdelta [3], the pEC50 was 8.22 and the Emax was found to be 86%. Moreover, at hPPARgamma [4], the pEC50 was 6.25 and the Emax came out at 85%.

`Cc1cc(CCC(=O)c2ccc(-c3ccc(C(F)(F)F)cc3)s2)ccc1OC(C)(C)C(=O)O` [Compound 59, 2-methyl-2-(2-methyl-4-(3-oxo-3-(5-(4-(trifluoromethyl)phenyl)-thien-2-yl)propyl)phenoxy)propanoic acid] registered a melting point of 130 to 131 °C. Besides, on hPPARalpha [5], the Emax turned out to be 47%. On hPPARdelta [6], the pEC50 was 7.52 and the Emax is 107%. Also, at hPPARgamma [7], the Emax was 57% and the pEC50 was 6.64.

`CC(C)(Oc1ccc(CCC(OCc2ccccc2)c2ccc(-c3ccc(C(F)(F)F)cc3)s2)c(F)c1F)C(=O)O` (stereo not shown) [Compound 63, 2-(4-(3-(benzyloxy)-3-(5-(4-(trifluoromethyl)phenyl)thien-2-yl)-propyl)-2,3-difluorophenoxy)-2-methylpropanoic acid]: the “expression of genes involved” value in data set [1] was “stimulating effects”. In addition, the pEC50 was 5.38 on hPPARalpha [5], 6.74 on hPPARdelta [6] and 5.10 on hPPARgamma [7]. Also, the Emax worked out at 46% on hPPARalpha [5], 97% on hPPARdelta [6] and 44% on hPPARgamma [7].

Take `CC(C)(Oc1ccc(CCC(=O)c2ccc(-c3ccc(C(F)(F)F)cc3)s2)cc1)C(=O)O` [Compound 67, 2-(4-(3-oxo-3-(5-(4-(trifluoromethyl)phenyl)thien-2-yl)propyl)-phenoxy)-2-methylpropanoic acid]: the melting point is 154 to 155 °C. Moreover, on hPPARalpha [5], the pEC50 was 8.00 and the Emax came out at 45%. On hPPARdelta [6], the pEC50 is 6.44 and the Emax is 75%. On hPPARgamma [7], the Emax amounted to 37% and the pEC50 was 5.32.

With `COC(CCc1ccc(OC(C)(C)C(=O)O)c(Cl)c1Cl)c1ccc(-c2ccc(C(F)(F)F)cc2)o1` (stereo not shown) [Compound 72, 2-(2,3-dichloro-4-(3-methoxy-3-(5-(4-(trifluoromethyl)phenyl)fur-2-yl)propyl)phenoxy)-2-methylpropanoic acid], the “expression of genes involved” value in data set [1] is “stimulating effects”. Also, the pEC50 at hPPARalpha [5] was 6.57; at hPPARgamma [7], 6.80. The results for the Emax on hPPARalpha [5], at hPPARdelta [6] and on hPPARgamma [7] were 59%, 97% and 70%, respectively.
